Laboratory results taken from patent publication US20020137929A1, “1 - (3-heterocyclylphenyl) isothiourea, -isourea, -guanidine and -amidine herbicidal agents” (Intellectual Property Department, BASF Aktiengesellschaft, priority 1998, published 2002).

Experiments:
CYPIR (Rice Flatsedge) = test: Postemergence weed control under flooded paddy conditions; assay type: in vivo, Cyperus iria; details: postemergence weeds, 3-4 weeks after treatment
In short: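 Injury ratings (0–9 scale covering stand, vigor, malformation, size, chlorosis and overall appearance versus control) were made three to four weeks after treatment. Test material, about 0.0313 to 0.500 kg/ha a.i. in 50/50 v/v aqueous/acetone, was added to flood water 1.5 to 3 cm deep over 3 to 5 cm weeds and 1.5 to 2.5 leaf rice.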

[1] = tested on: SAGPY (Arrowhead (Pygmaea)); test: Preemergence weed control under flooded paddy conditions; assay type: in vivo, Sagittaria pygmaea; details: rated 3-4 weeks after treatment
In short: (§1)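 First, seeds or propagules go into the top 0.5 cm of silt loam; next, water is held 1.5 to 3 cm over the soil; then compound (50/50 acetone/water) is pipetted into it at about 0.0313 to 0.500 kg/ha; finally plants are rated visually 0-9 after three to four weeks.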

ABUTH (Velvetleaf) = test: Preemergence herbicidal evaluation; assay type: in vivo, Abutilon theophrasti; details: rated 4-5 weeks after treatment
In short: (§2)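 Herbicidal effect scored visually, 0-9, at 4 to 5 weeks against a control; compound applied preemergence by aqueous acetone spray to seeded soil at about 0.0156 to 0.500 kg/ha.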

[2] = tested on: GLXMAW (Soybean, Williams); test: Preemergence herbicidal evaluation; assay type: in vivo, Glycine max, (L.) Merr. cv Williams; details: rated 4-5 weeks after treatment
In short: as §2

CASOB (Sicklepod) [3] = test: Postemergence herbicidal evaluation; assay type: in vivo, Cassia obtusifolia; details: postemergence
In short: (§3)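 Each compound, dispersed in an acetone/water mix (50/50) carrying 0.5% TWEEN 20, is nozzle-sprayed at 40 psi on approximately two-week-old seedlings at about 0.0156–0.500 kg/ha. Plants are assessed 4–5 weeks afterward on a 0–9 scale relative to control; duplicate tests are averaged.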

CASOB (Sicklepod) [4] = test: Preemergence herbicidal evaluation; assay type: in vivo, Cassia obtusifolia; details: rated 4-5 weeks after treatment
In short: as §2

AMBEL (Ragweed, Common) = test: Postemergence herbicidal evaluation; assay type: in vivo, Ambrosia artemisifolia; details: postemergence
In short: as §3

[5] = tested on: IPOHE (Morningglory, Ivyleaf); test: Postemergence herbicidal evaluation; assay type: in vivo, Ipomoea hederacea; details: postemergence
In short: as §3

[6] = tested on: TRZAWR (Wheat, Winter, cv Riband); test: Preemergence herbicidal evaluation; assay type: in vivo, Triticum aestivum; details: rated 4-5 weeks after treatment
In short: as §2

ECHCG (Barnyardgrass) = test: Preemergence herbicidal evaluation; assay type: in vivo, Echinochloa crus-galli; details: rated 4-5 weeks after treatment
In short: as §2

[7] = tested on: IPOHE (Morningglory, Ivyleaf); test: Preemergence herbicidal evaluation; assay type: in vivo, Ipomoea hederacea; details: rated 4-5 weeks after treatment
In short: as §2

MOOVA (Monochoria) = test: Preemergence weed control under flooded paddy conditions; assay type: in vivo, Monochoria vaginalis; details: rated 3-4 weeks after treatment
In short: as §1

ZEAMX (Corn, Field) = test: Preemergence herbicidal evaluation; assay type: in vivo, Zea mays; details: rated 4-5 weeks after treatment
In short: as §2

GALAP (Galium) = test: Postemergence herbicidal evaluation; assay type: in vivo, Galium aparine; details: postemergence
In short: as §3

Q: With `CCOC(=O)CN1C(=O)CSC1=Nc1cc(-n2c(=O)cc(C(F)(F)F)n(C)c2=O)c(F)cc1Cl` [Compound 8, Ethyl 2-{{2-chloro-5-[3,6-dihydro-3-methyl-2,6-dioxo-4-(trifluoromethyl)-1(2H)pyrimidinyl]-4-fluorophenyl}imino}-4-oxo-3-thiazolidineacetate] as the compound, how does the “Herbicidal rating CYPIR” value (CYPIR (Rice Flatsedge); rate 0.0313 kg/ha) read?
A: Its value is 0.0.

Q: And the “Herbicidal rating CYPIR” value (CYPIR (Rice Flatsedge); rate 0.0625 kg/ha)?
A: The value was 0.0.

Q: What about the “Herbicidal rating CYPIR” value (CYPIR (Rice Flatsedge); rate 0.1250 kg/ha) of the same compound?
A: The value was 0.0.

Q: And the “Herbicidal rating CYPIR” value (CYPIR (Rice Flatsedge); rate 0.2500 kg/ha)?
A: The value was 4.0.

Q: And the “Herbicidal rating SAGPY” value ([1]; 0.0313 kg/ha)?
A: Its value is 0.0.

Q: What about the “Herbicidal rating SAGPY” value ([1]; 0.0625 kg/ha) of the same compound?
A: Its value is 0.0.

Q: And the “Herbicidal rating SAGPY” value ([1]; 0.1250 kg/ha)?
A: Its value is 0.0.

Q: And the “Herbicidal rating SAGPY” value ([1]; 0.2500 kg/ha)?
A: The value was 0.0.

Q: And the “ABUTH preemergence herbicidal rating” value (ABUTH (Velvetleaf); rate 0.0156 kg/ha)?
A: Its value is 7.3.

Q: And the “ABUTH preemergence herbicidal rating” value (ABUTH (Velvetleaf); rate 0.0313 kg/ha)?
A: The value was 8.4.

Q: What about the “ABUTH preemergence herbicidal rating” value (ABUTH (Velvetleaf); rate 0.0625 kg/ha) of the same compound?
A: The value was 8.7.

Q: And the “ABUTH preemergence herbicidal rating” value (ABUTH (Velvetleaf); rate 0.1250 kg/ha)?
A: Its value is 9.0.

Q: And the “ABUTH preemergence herbicidal rating” value (ABUTH (Velvetleaf); rate 0.2500 kg/ha)?
A: The value was 9.0.

Q: And the “ABUTH preemergence herbicidal rating” value (ABUTH (Velvetleaf); rate 0.5000 kg/ha)?
A: The value was 9.0.

Q: What about the “GLXMAW preemergence herbicidal rating” value ([2]; rate 0.0156 kg/ha) of the same compound?
A: The value was 0.2.

Q: And the “GLXMAW preemergence herbicidal rating” value ([2]; rate 0.0313 kg/ha)?
A: The value was 1.1.

Q: What about the “GLXMAW preemergence herbicidal rating” value ([2]; rate 0.0625 kg/ha) of the same compound?
A: Its value is 3.2.

Q: What about the “GLXMAW preemergence herbicidal rating” value ([2]; rate 0.1250 kg/ha) of the same compound?
A: The value was 5.9.

Q: What about the “GLXMAW preemergence herbicidal rating” value ([2]; rate 0.2500 kg/ha) of the same compound?
A: The value was 7.9.

Q: What about the “GLXMAW preemergence herbicidal rating” value ([2]; rate 0.5000 kg/ha) of the same compound?
A: The value was 8.8.

Q: What about the CASOB herbicidal rating (CASOB (Sicklepod) [3]; rate 0.0157 kg/ha) of the same compound?
A: Its CASOB herbicidal rating is 0.0.

Q: What about the CASOB herbicidal rating (CASOB (Sicklepod) [3]; rate 0.0313 kg/ha) of the same compound?
A: The CASOB herbicidal rating was 1.8.

Q: What about the CASOB herbicidal rating (CASOB (Sicklepod) [3]; rate 0.0625 kg/ha) of the same compound?
A: The CASOB herbicidal rating was 3.0.

Q: What about the CASOB herbicidal rating (CASOB (Sicklepod) [3]; rate 0.1250 kg/ha) of the same compound?
A: Its CASOB herbicidal rating is 3.0.

Q: And the “CASOB preemergence herbicidal rating” value (CASOB (Sicklepod) [4]; rate 0.0156 kg/ha)?
A: The value was 0.0.

Q: And the “CASOB preemergence herbicidal rating” value (CASOB (Sicklepod) [4]; rate 0.0313 kg/ha)?
A: The value was 0.1.

Q: What about the “CASOB preemergence herbicidal rating” value (CASOB (Sicklepod) [4]; rate 0.0625 kg/ha) of the same compound?
A: The value was 1.2.

Q: And the “CASOB preemergence herbicidal rating” value (CASOB (Sicklepod) [4]; rate 0.1250 kg/ha)?
A: The value was 1.7.

Q: And the “CASOB preemergence herbicidal rating” value (CASOB (Sicklepod) [4]; rate 0.2500 kg/ha)?
A: Its value is 3.3.

Q: What about the “CASOB preemergence herbicidal rating” value (CASOB (Sicklepod) [4]; rate 0.5000 kg/ha) of the same compound?
A: Its value is 3.8.

Q: And the AMBEL herbicidal rating (AMBEL (Ragweed, Common); rate 0.0157 kg/ha)?
A: Its AMBEL herbicidal rating is 9.0.

Q: What about the AMBEL herbicidal rating (AMBEL (Ragweed, Common); rate 0.0313 kg/ha) of the same compound?
A: The AMBEL herbicidal rating was 7.8.

Q: And the AMBEL herbicidal rating (AMBEL (Ragweed, Common); rate 0.0625 kg/ha)?
A: The AMBEL herbicidal rating was 8.3.

Q: What about the AMBEL herbicidal rating (AMBEL (Ragweed, Common); rate 0.1250 kg/ha) of the same compound?
A: Its AMBEL herbicidal rating is 8.6.

Q: What about the IPOHE herbicidal rating ([5]; rate 0.0157 kg/ha) of the same compound?
A: The IPOHE herbicidal rating was 9.0.

Q: What about the IPOHE herbicidal rating ([5]; rate 0.0313 kg/ha) of the same compound?
A: The IPOHE herbicidal rating was 9.0.

Q: What about the IPOHE herbicidal rating ([5]; rate 0.0625 kg/ha) of the same compound?
A: The IPOHE herbicidal rating was 9.0.

Q: And the IPOHE herbicidal rating ([5]; rate 0.1250 kg/ha)?
A: The IPOHE herbicidal rating was 9.0.

Q: And the “TRZAWR preemergence herbicidal rating” value ([6]; rate 0.0156 kg/ha)?
A: The value was 0.2.

Q: What about the “TRZAWR preemergence herbicidal rating” value ([6]; rate 0.0313 kg/ha) of the same compound?
A: The value was 0.8.

Q: And the “TRZAWR preemergence herbicidal rating” value ([6]; rate 0.0625 kg/ha)?
A: Its value is 2.8.

Q: And the “TRZAWR preemergence herbicidal rating” value ([6]; rate 0.1250 kg/ha)?
A: Its value is 5.5.

Q: And the “TRZAWR preemergence herbicidal rating” value ([6]; rate 0.2500 kg/ha)?
A: Its value is 7.2.

Q: And the “TRZAWR preemergence herbicidal rating” value ([6]; rate 0.5000 kg/ha)?
A: The value was 7.8.

Q: And the “ECHCG preemergence herbicidal rating” value (ECHCG (Barnyardgrass); rate 0.0156 kg/ha)?
A: The value was 0.4.

Q: What about the “ECHCG preemergence herbicidal rating” value (ECHCG (Barnyardgrass); rate 0.0313 kg/ha) of the same compound?
A: The value was 2.2.

Q: What about the “ECHCG preemergence herbicidal rating” value (ECHCG (Barnyardgrass); rate 0.0625 kg/ha) of the same compound?
A: Its value is 4.4.

Q: What about the “ECHCG preemergence herbicidal rating” value (ECHCG (Barnyardgrass); rate 0.1250 kg/ha) of the same compound?
A: The value was 7.4.

Q: And the “ECHCG preemergence herbicidal rating” value (ECHCG (Barnyardgrass); rate 0.2500 kg/ha)?
A: The value was 8.9.

Q: And the “ECHCG preemergence herbicidal rating” value (ECHCG (Barnyardgrass); rate 0.5000 kg/ha)?
A: The value was 9.0.

Q: And the “IPOHE preemergence herbicidal rating” value ([7]; rate 0.0156 kg/ha)?
A: The value was 1.1.

Q: And the “IPOHE preemergence herbicidal rating” value ([7]; rate 0.0313 kg/ha)?
A: The value was 4.4.

Q: What about the “IPOHE preemergence herbicidal rating” value ([7]; rate 0.0625 kg/ha) of the same compound?
A: Its value is 6.4.

Q: And the “IPOHE preemergence herbicidal rating” value ([7]; rate 0.1250 kg/ha)?
A: Its value is 8.6.

Q: And the “IPOHE preemergence herbicidal rating” value ([7]; rate 0.2500 kg/ha)?
A: The value was 8.6.

Q: And the “IPOHE preemergence herbicidal rating” value ([7]; rate 0.5000 kg/ha)?
A: Its value is 9.0.

Q: What about the “Herbicidal rating MOOVA” value (MOOVA (Monochoria); 0.0313 kg/ha) of the same compound?
A: The value was 9.0.

Q: What about the “Herbicidal rating MOOVA” value (MOOVA (Monochoria); 0.0625 kg/ha) of the same compound?
A: Its value is 9.0.

Q: And the “Herbicidal rating MOOVA” value (MOOVA (Monochoria); 0.1250 kg/ha)?
A: The value was 9.0.

Q: And the “Herbicidal rating MOOVA” value (MOOVA (Monochoria); 0.2500 kg/ha)?
A: Its value is 9.0.

Q: And the “ZEAMX preemergence herbicidal rating” value (ZEAMX (Corn, Field); rate 0.0156 kg/ha)?
A: Its value is 2.2.

Q: What about the “ZEAMX preemergence herbicidal rating” value (ZEAMX (Corn, Field); rate 0.0313 kg/ha) of the same compound?
A: The value was 4.9.

Q: And the “ZEAMX preemergence herbicidal rating” value (ZEAMX (Corn, Field); rate 0.0625 kg/ha)?
A: The value was 6.4.

Q: What about the “ZEAMX preemergence herbicidal rating” value (ZEAMX (Corn, Field); rate 0.1250 kg/ha) of the same compound?
A: The value was 7.4.

Q: And the “ZEAMX preemergence herbicidal rating” value (ZEAMX (Corn, Field); rate 0.2500 kg/ha)?
A: Its value is 7.9.

Q: And the “ZEAMX preemergence herbicidal rating” value (ZEAMX (Corn, Field); rate 0.5000 kg/ha)?
A: The value was 8.3.

Q: What about the GALAP herbicidal rating (GALAP (Galium); rate 0.0157 kg/ha) of the same compound?
A: The GALAP herbicidal rating was 3.0.

Q: What about the GALAP herbicidal rating (GALAP (Galium); rate 0.0313 kg/ha) of the same compound?
A: Its GALAP herbicidal rating is 4.5.

Q: What about the GALAP herbicidal rating (GALAP (Galium); rate 0.0625 kg/ha) of the same compound?
A: The GALAP herbicidal rating was 6.3.

Q: And the GALAP herbicidal rating (GALAP (Galium); rate 0.1250 kg/ha)?
A: Its GALAP herbicidal rating is 6.8.
